Values quoted from earlier work as cited in patent US20130001095A1, “METHOD OF PRODUCING COUPLED RADICAL PRODUCTS” (priority 2009, published 2013).

## O=C([O-])CCCC(=O)[O-].[Na+].[Na+] [Sodium glutarate]
methanol
  solubility in methanol: not soluble
water
  solubility in water: soluble
